# T1: G-CSF receptor (Mus musculus, UniProt P40223)
# T1 construct: they express endogenous G-CSF receptors; endogenous in cells; host or cells: NFS60 (murine myeloid cell line) containing a G-CSF-responsive element / luciferase reporter
# T1 sequence (P40223 26-837): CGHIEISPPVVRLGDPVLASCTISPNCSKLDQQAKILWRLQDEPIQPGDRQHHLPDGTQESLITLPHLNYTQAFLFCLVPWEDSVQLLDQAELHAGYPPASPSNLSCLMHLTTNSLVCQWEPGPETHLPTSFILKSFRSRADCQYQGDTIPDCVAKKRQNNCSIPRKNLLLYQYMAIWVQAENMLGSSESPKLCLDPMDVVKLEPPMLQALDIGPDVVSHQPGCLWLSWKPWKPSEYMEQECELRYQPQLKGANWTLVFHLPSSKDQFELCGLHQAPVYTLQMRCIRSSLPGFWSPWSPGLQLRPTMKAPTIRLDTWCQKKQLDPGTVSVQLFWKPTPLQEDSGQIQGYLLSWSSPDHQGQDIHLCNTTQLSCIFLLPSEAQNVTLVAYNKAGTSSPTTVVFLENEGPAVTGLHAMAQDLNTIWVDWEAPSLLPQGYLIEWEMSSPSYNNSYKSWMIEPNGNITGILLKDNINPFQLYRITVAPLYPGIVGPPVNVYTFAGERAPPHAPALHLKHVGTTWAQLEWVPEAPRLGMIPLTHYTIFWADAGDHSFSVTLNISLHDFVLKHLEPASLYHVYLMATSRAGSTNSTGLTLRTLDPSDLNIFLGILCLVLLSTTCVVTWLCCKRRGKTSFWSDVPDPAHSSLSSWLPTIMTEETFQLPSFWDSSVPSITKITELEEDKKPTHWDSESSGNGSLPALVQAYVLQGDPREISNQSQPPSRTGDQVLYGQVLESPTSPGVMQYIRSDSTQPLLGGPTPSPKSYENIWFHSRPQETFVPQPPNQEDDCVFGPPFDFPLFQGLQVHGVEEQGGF
# B1: recombinant G-CSF: natural ligand for the G-CSF receptor (G-CSF or recombinant G-CSF) (protein, UniProt P09919 31-207, looked up)
# Granulocyte …: TPLGPASSLPQSFLLKCLEQVRKIQGDGAALQEKLVSECATYKLCHPEELVLLGHSLGIPWAPLSSCPSQALQLAGCLSQLHSGLFLYQGLLQALEGISPELGPTLDTLQLDVADFATTIWQQMEELGMAPALQPTQGAMPAFASAFQRRAGGVLVASHLQSFLEVSYRVLRHLAQP
# What was measured:
# G-CSF receptor [1] = target: T1, G-CSF receptor; assay: Luciferase reporter gene assay in G-CSF-responsive NFS60 cells; format: cell-based, murine; details: for activation in the luciferase assay: concentration range of 1 to 100 micromolar
# Experimental: Activity of compound 1a is below the threshold of 150% over background. The study was performed as a Luciferase assay configured on the G-CSF-responsive NFS60 cell line as described in Tian et al., Science 281, 257-259 (1998). The experiments shown in FIGS. 2-8 used the same NFS60 cell line.
# Compounds of the present invention were tested for potency as agonist of the G-CSF receptor in a Luciferase reporter gene assay such as described in Tian et al., Science 281, 257-259 (1998). The NFS60 cells (Holmes, et al., Proc. Natl. Acad. Sci. USA 82:6687-6691 (1985)) were selected because they express endogenous G-CSF receptors closely matching the pattern of STAT (signal transducers and activators of transcription) activation observed in primary murine and human bone marrow cells.
# CFU-G = CFU-G assay; format: cell-based, murine; details: concentration range of 1 to 100 micromolar
# Experimental: Compounds of this invention are also tested for activity in the following assays: CFU-G assay (an example of which is described in King A. G., Talmadge J., Badger A. M., Pelus L. M. Regulation of colony stimulating activity production from bone marrow stromal cells by the hematoregulatory peptide, HP-5. Exp. Hematol. 20:223-228, 1992) and in vivo evaluation of peripheral blood neutrophil and monocyte count in the mouse (an example of which is described in Pelus, L. M.; King, A. G.; Broxmeyer, H. E.; DeMarsh, P. L.; Petteway, S. R.; Bhatnagar, P. K., In vivo modulation of hematopoiesis by a novel hematoregulatory peptide Exp-Hematol. 1994 22(3):239-47). In order to confirm the requirement for zinc(II) chelation, the above CFU-G assay was also conducted in the presence of EDTA.
# [2] = test system: peripheral blood neutrophil and monocyte count; assay: In vivo evaluation of peripheral blood neutrophil and monocyte count; details: mouse
# Experimental: Compounds of this invention are also tested for activity in the following assays: CFU-G assay (an example of which is described in King […]., Badger A. M., Pelus L. M. Regulation of colony stimulating activity production from bone marrow stromal cells by the hematoregulatory peptide, HP-5. Exp. […] M.; King, […].; DeMarsh, […]., In vivo modulation of hematopoiesis by a novel hematoregulatory peptide Exp-Hematol. 1994 22(3):239-47).
# G-CSF receptor [3] = target: T1, G-CSF receptor; assay: Luciferase assay in NFS60 cells in the presence of EDTA; format: cell-based, murine; details: for G-CSF agonist activity in the presence of EDTA (metal ion mediation): FIGS. 3 and 4
# Experimental: The media in this assay contained a small amount (1-5 uM) of zinc(II).
# In order to determine the requisiteness of zinc chelation of small organic molecules to agonist activity at the G-CSF receptor, the above luciferase assay was performed in the presence of EDTA.
# G-CSF/Fc fusion protein = assay: Isothermal titration microcalorimetry; format: binding; details: in the presence of zinc
# Experimental: Zinc-mediated affinity of compounds from this invention for the G-CSF receptor was measured by isothermal titration microcalorimetry experiments. Titration microcalorimetry detects binding as heat originating from the intrinsic bond forming enthalpy change. […] In a separate experiment, the compounds were then assayed in the presence of zinc and a G-CSF/Fc fusion protein, which contained the extracellular domain of the G-CSF receptor presented in a dimeric form due to the Fc component.
Molecule,activation in the luciferase assay (G-CSF receptor [1]),activation in the murine CFU-G assay (CFU-G),peripheral blood neutrophil and monocyte count [2],G-CSF agonist activity in the presence of EDTA (metal ion mediation) (G-CSF receptor [3]),affinity for G-CSF/Fc fusion protein (G-CSF/Fc fusion protein),also measured
"[Zn+2].c1ccc(C23NC(=Nc4nc5ccccc5[nH]4)NC2(c2ccccn2)NC(=Nc2nc4ccccc4[nH]2)N3)nc1.c1ccc(C23NC(=Nc4nc5ccccc5[nH]4)NC2(c2ccccn2)NC(=Nc2nc4ccccc4[nH]2)N3)nc1 (stereo not drawn) [Compound 1, Bis{2,5-bis[2-benzimidazolylimino]-3a,6a-bis(2-pyridyl)-1,2,3,3a,4,5,6,6a-octahydroimidazo[4,5-d]imidazole-N,N'}-zinc(II)]",above 150 % of control,–,–,–,–,–
"c1ccc(C23NC(=Nc4nc5ccccc5[nH]4)NC2(c2ccccn2)NC(=Nc2nc4ccccc4[nH]2)N3)nc1 (stereo not drawn) [Compound 1a, 2,5-Bis[2-benzimidazolylimino]-3a,6a-bis(2-pyridyl)-1,2,3,3a,4,5,6,6a-octahydroimidazo[4,5-d]imidazole]",above 150 % of control,above 150 % of control,elevation of peripheral blood neutrophil and monocyte count,abrogated,"high, submicromolar affinity","effect of EDTA on luciferase activity (G-CSF receptor [3]; EDTA 1.2 millimolar, media contained 1-5 uM zinc(II), FIG. 3): antagonized; luciferase activity (G-CSF agonist activity) (G-CSF receptor [1]; NFS60 cells, absence of zinc, FIG. 1): < 150 % over background; luciferase activity (G-CSF receptor [1]; NFS60 cells, presence of 1 uM zinc (II), FIG. 2): about 350 % over control; G-CSF agonist efficacy (G-CSF receptor [1]; presence of 1 uM zinc(II), at 1 uM, FIG. 2): 350 % over background"
"c1ccc(C23NC(=Nc4nc5ccccc5[nH]4)NC2(c2ccccc2)NC(=Nc2nc4ccccc4[nH]2)N3)cc1 (stereo not drawn) [Compound 2a, 2,5-Bis[2-benzimidazolylimino]-3a,6a-diphenyl-1,2,3,3a,4,5,6,6a-octahydroimidazo[4,5-d]imidazole]",above 150 % of control,–,–,–,–,–
"Cc1ccc2nc(N=C3NC4(c5ccccn5)NC(=Nc5nc6ccccc6[nH]5)NC4(c4ccccn4)N3)[nH]c2c1.O=C(O)C(F)(F)F.O=C(O)C(F)(F)F (stereo not drawn) [Compound 3a, 5-(2-benzimidazolylimino)-2-[(5-methyl-2-benzimidazolyl)imino]-3a,6a-bis(2-pyridyl)-1,2,3,3a,4,5,6,6a-octahydroimidazo[4,5-d]imidazole bis(trifluoroacetate) salt]",above 150 % of control,above 150 % of control,elevation of peripheral blood neutrophil and monocyte count,–,"high, submicromolar affinity",–
zinc (II) [reference compound],–,–,–,–,–,"effect of metal chlorides on the EDTA depleted activity of Compound 1a (G-CSF receptor [3]; 50 micromolar EDTA, metal at 0.5-10 micromolar, FIGS. 7 and 8): can overcome the inhibition"
B1,–,–,–,not mediated by metal ions,–,"effect of EDTA on luciferase activity (G-CSF receptor [3]; EDTA 1.2 and 5 millimolar, FIG. 4): little effect"

# Source: US6211200A, “Metal complexes” (SmithKline Beecham Corporation, priority 1998, dated 2001)
